What was measured:
Settings in all cases: 48 h
[1] = system: P12-Ichikawa; test: cell viability relative to DMSO control; higher = less cytotoxic
In short: (§1)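 In 1536-well plates, 5 μl of leukemia cells were seeded per well: 500 cells/well for NOMO1 or SEM and 1000 cells/well for P12-Ichikawa. Each line had first been adapted for at least four passages in each medium. Library compounds in DMSO were pin-dosed at 11 threefold concentrations between 47 μM and 0.79 nM, and CellTiter-Glo One luminescence was read after 48 h at 37°C. Viability is a per-plate percentage relative to DMSO wells, with cell-free wells as background.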

[2] = system: SEM cells; test: as above
In short: as §1

[3] = system: NOMO1; test: as above
In short: as §1

[4] = system: P12-Ichikawa; test: AUC of viability dose-response curve (% viability x log10 dose units); higher = less sensitive
In short: (§2)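 Medium-adapted leukemia cells in 1536-well plates, at 500 or 1000 cells/well, were incubated for 48 h at 37°C with library compounds in DMSO at 11 threefold doses from 47 μM to 0.79 nM. CellTiter-Glo One luminescence normalised per plate to DMSO and cell-free wells was fitted with a four-parameter log-logistic model over log10 doses. Area under the curve was integrated from this fit by trapezoidal rule, with curves beyond full viability scaled and failed quality-control curves removed.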

[5] = system: SEM cells; test: as above
In short: as §2

[6] = system: NOMO1; test: as above
In short: as §2

CCOc1ccccc1N/N=C1/C(=O)N(c2nc(-c3ccccc3)cs2)N=C1C
cell viability [%]
Settings | [1] | [2] | [3]
HPLM + 10% dialyzed FBS, 0.000781 µM | 111 | 124 | 118
HPLM + 10% dialyzed FBS, 0.00234 µM | 114 | 114 | 122
HPLM + 10% dialyzed FBS, 0.00702 µM | 114 | 93 | 119
HPLM + 10% dialyzed FBS, 0.0211 µM | 115 | 122 | 123
HPLM + 10% dialyzed FBS, 0.0632 µM | 114 | 105 | 113
HPLM + 10% dialyzed FBS, 0.19 µM | 108 | 99.2 | 117
HPLM + 10% dialyzed FBS, 0.569 µM | 104 | 100 | 115
HPLM + 10% dialyzed FBS, 1.71 µM | 101 | 86.4 | 108
HPLM + 10% dialyzed FBS, 5.12 µM | 103 | 45.9 | 103
HPLM + 10% dialyzed FBS, 15.4 µM | 86.4 | 8.56 | 57.5
HPLM + 10% dialyzed FBS, 46.1 µM | 67 | 3.58 | 32.1
RPMI 5 mM glucose + 10% FBS, 0.000781 µM | 115 | 103 | 109
RPMI 5 mM glucose + 10% FBS, 0.00234 µM | 108 | 114 | 103
RPMI 5 mM glucose + 10% FBS, 0.00702 µM | 108 | 102 | 104
RPMI 5 mM glucose + 10% FBS, 0.0211 µM | 121 | 116 | 114
RPMI 5 mM glucose + 10% FBS, 0.0632 µM | 116 | 144 | 97.3
RPMI 5 mM glucose + 10% FBS, 0.19 µM | 120 | 110 | 109
RPMI 5 mM glucose + 10% FBS, 0.569 µM | 112 | 111 | 101
RPMI 5 mM glucose + 10% FBS, 1.71 µM | 106 | 70.7 | 97.3
RPMI 5 mM glucose + 10% FBS, 5.12 µM | 114 | 70 | 97.8
RPMI 5 mM glucose + 10% FBS, 15.4 µM | 98.9 | 9.65 | 77.1
RPMI 5 mM glucose + 10% FBS, 46.1 µM | 97 | 2.74 | 56.1
RPMI 5 mM glucose + 10% dialyzed FBS, 0.000781 µM | 113 | 114 | 109
RPMI 5 mM glucose + 10% dialyzed FBS, 0.00234 µM | 118 | 106 | 106
RPMI 5 mM glucose + 10% dialyzed FBS, 0.00702 µM | 110 | 101 | 103
RPMI 5 mM glucose + 10% dialyzed FBS, 0.0211 µM | 116 | 115 | 122
RPMI 5 mM glucose + 10% dialyzed FBS, 0.0632 µM | 113 | 106 | 118
RPMI 5 mM glucose + 10% dialyzed FBS, 0.19 µM | 108 | 97.4 | 102
RPMI 5 mM glucose + 10% dialyzed FBS, 0.569 µM | 109 | 81.7 | 104
RPMI 5 mM glucose + 10% dialyzed FBS, 1.71 µM | 105 | 77.1 | 90.5
RPMI 5 mM glucose + 10% dialyzed FBS, 5.12 µM | 106 | 59.4 | 90
RPMI 5 mM glucose + 10% dialyzed FBS, 15.4 µM | 94.6 | 9.71 | 59.8
RPMI 5 mM glucose + 10% dialyzed FBS, 46.1 µM | 94.6 | 3.01 | 39.7

AUC of viability dose-response curve
Settings | [4] | [5] | [6]
HPLM + 10% dialyzed FBS | 444 | 368 | 428
RPMI 5 mM glucose + 10% FBS | 467 | 371 | 447
RPMI 5 mM glucose + 10% dialyzed FBS | 450 | 358 | 419

CC(c1cc2ccccc2s1)N(O)C(N)=O (stereo not drawn)
[2], HPLM + 10% dialyzed FBS
Settings | cell viability [%]
0.000781 µM | 112
0.00234 µM | 130
0.00702 µM | 123
0.0211 µM | 118
0.0632 µM | 129
0.19 µM | 136
0.569 µM | 132
1.71 µM | 120
5.12 µM | 119
15.4 µM | 116
46.1 µM | 73.1

AUC of viability dose-response curve
Settings | [4] | [5] | [6]
HPLM + 10% dialyzed FBS | 456 | 463 | 474
RPMI 5 mM glucose + 10% FBS | 460 | 459 | 459
RPMI 5 mM glucose + 10% dialyzed FBS | 458 | 448 | 425

Source: the supplement of paper PMC11451515
